# Results: patent publication EP0203488A2, “7-Azolyl-1-cyclopropyl-1,4-dihydro-4-oxo-3-quinoline carboxylic acids and 1,8-naphthyridine carboxylic acids, process for their preparation and bactericidal agents containing them” (BAYER AG, priority 1985, dated 1986)
# Assays:
# Assay in all cases: Agar dilution test (Isosensitest medium), MIC
# Assay type in all cases: cell-based
# E.coli Neum. = details: Escherichia coli, Agardilutionstest / Isosensitestmedium, read-out: MHK-Werte
# Text: (§1) In der nachstehenden Tabelle sind die MHK-Werte einiger der erfindungsgemäßen Verbindungen im Vergleich zu Ciprofloxacin angegeben.
# Pseudom.aerug.Ellsw. = details: Agardilutionstest / Isosensitestmedium, read-out: MHK-Werte
# Text: as §1
# Streptococcus faec.27101 = details: Agardilutionstest / Isosensitestmedium, read-out: MHK-Werte
# Text: as §1
# Klebsiella pneum. 63 = details: Agardilutionstest / Isosensitestmedium, read-out: MHK-Werte
# Text: as §1
# Staph. aur. 1756 = details: Agardilutionstest / Isosensitestmedium, read-out: MHK-Werte
# Text: as §1
# Proteus vulg. 1017 = details: Agardilutionstest / Isosensitestmedium, read-out: MHK-Werte
# Text: as §1
# Klebsiella pneum. 8085 = details: Agardilutionstest / Isosensitestmedium, read-out: MHK-Werte
# Text: as §1
# E.coli T 7 = details: Escherichia coli, T7, Agardilutionstest / Isosensitestmedium, read-out: MHK-Werte
# Text: as §1
# Staph. aur. FK 422 = details: Agardilutionstest / Isosensitestmedium, read-out: MHK-Werte
# Text: as §1
# Staph. aur. 133 = details: Agardilutionstest / Isosensitestmedium, read-out: MHK-Werte
# Text: as §1
structure (smiles),measurement,setting,value
"CCn1cc(C(=O)O)c(=O)c2cc(F)c(-n3ccnc3)c(F)c21 [EP 115 049, 1-Ethyl-6,8-difluor-1,4-dihydro-7-(1-imidazolyl)-4-oxo-3-chinolincarbonsäure, reference compound]",MIC,E.coli Neum.,0.125 µg/mL
same,MIC,Pseudom.aerug.Ellsw.,1 µg/mL
same,MIC,Streptococcus faec.27101,2 µg/mL
same,MIC,Klebsiella pneum. 63,0.5 µg/mL
same,MIC,Staph. aur. 1756,1 µg/mL
same,MIC,Proteus vulg. 1017,0.5 µg/mL
same,MIC,Klebsiella pneum. 8085,0.25 µg/mL
same,MIC,E.coli T 7,0.125 µg/mL
same,MIC,Staph. aur. FK 422,0.5 µg/mL
same,MIC,Staph. aur. 133,1 µg/mL
"O=C(O)c1cn(C2CC2)c2cc(-n3cccc3)c(F)cc2c1=O [Beispiel 1, 1-Cyclopropyl-6-fluor-1,4-dihydro-4-oxo-7-(1-pyrrolyl)-3-chino-lincarbonsäure]",MIC,E.coli Neum.,0.06 µg/mL
same,MIC,Pseudom.aerug.Ellsw.,0.5 µg/mL
same,MIC,Streptococcus faec.27101,0.25 µg/mL
same,MIC,Klebsiella pneum. 63,0.125 µg/mL
same,MIC,Staph. aur. 1756,0.03 µg/mL
same,MIC,Proteus vulg. 1017,0.25 µg/mL
same,MIC,Klebsiella pneum. 8085,0.06 µg/mL
same,MIC,E.coli T 7,0.06 µg/mL
same,MIC,Staph. aur. FK 422,0.03 µg/mL
same,MIC,Staph. aur. 133,0.03 µg/mL
"O=C(O)c1cn(C2CC2)c2c(Cl)c(-n3ccnc3)c(F)cc2c1=O [Beispiel 20, 8-Chlor-1-cyclopropyl-6-fluor-1,4-dihydro-7-(1-imidazolyl)-4-oxo-3-chinolincarbonsäure]",MIC,E.coli Neum.,0.03 µg/mL
same,MIC,Pseudom.aerug.Ellsw.,0.5 µg/mL
same,MIC,Streptococcus faec.27101,0.125 µg/mL
same,MIC,Klebsiella pneum. 63,0.25 µg/mL
same,MIC,Staph. aur. 1756,0.03 µg/mL
same,MIC,Proteus vulg. 1017,0.25 µg/mL
same,MIC,Klebsiella pneum. 8085,0.03 µg/mL
same,MIC,E.coli T 7,0.03 µg/mL
same,MIC,Staph. aur. FK 422,0.03 µg/mL
same,MIC,Staph. aur. 133,0.03 µg/mL
"O=C(O)c1cn(C2CC2)c2c(F)c(-n3cccc3)c(F)cc2c1=O [Beispiel 2, 1-Cyclopropyl-6,8-difluor-1,4-dihydro-4-oxo-7-(1-pyrrolyl)-3-chinolincarbon-säure]",MIC,E.coli Neum.,0.25 µg/mL
same,MIC,Pseudom.aerug.Ellsw.,1 µg/mL
same,MIC,Streptococcus faec.27101,0.25 µg/mL
same,MIC,Klebsiella pneum. 63,0.5 µg/mL
same,MIC,Staph. aur. 1756,0.06 µg/mL
same,MIC,Proteus vulg. 1017,0.5 µg/mL
same,MIC,Klebsiella pneum. 8085,0.125 µg/mL
same,MIC,E.coli T 7,0.125 µg/mL
same,MIC,Staph. aur. FK 422,0.06 µg/mL
same,MIC,Staph. aur. 133,0.06 µg/mL
"O=C(O)c1cn(C2CC2)c2c(F)c(-n3ccnc3)c(F)cc2c1=O [Beispiel 21, 1-Cyclopropyl-6,8-difluor-1,4-dihydro-7-(1-imidazolyl)-4-oxo-3-chinolincarbonsäure]",MIC,E.coli Neum.,0.03 µg/mL
same,MIC,Pseudom.aerug.Ellsw.,0.25 µg/mL
same,MIC,Streptococcus faec.27101,0.5 µg/mL
same,MIC,Klebsiella pneum. 63,0.06 µg/mL
same,MIC,Staph. aur. 1756,0.125 µg/mL
same,MIC,Proteus vulg. 1017,0.125 µg/mL
same,MIC,Klebsiella pneum. 8085,0.03 µg/mL
same,MIC,E.coli T 7,0.03 µg/mL
same,MIC,Staph. aur. FK 422,0.125 µg/mL
same,MIC,Staph. aur. 133,0.125 µg/mL
